Assay results published in patent publication US12496302B2, “Compositions and methods for the treatment and diagnosis of cancer” (The General Hospital Corporation, priority 2020, dated 2025).

How the values were obtained:
SKOV3 xenograft tumors = assay: SKOV3 subcutaneous xenograft with Cisplatin; assay type: in vivo, BALB/c nude mice; conditions: Lv-shTRDMT1 infected SKOV3 xenografts, Cisplatin 5 mg/kg intratumoral twice per week for 3 weeks
Description: FIGS. 5A-5E show reduced TRDMT1 expression renders Cisplatin sensitization in vivo. (FIG. 5A) Lv-shTRDMT1 or Lv-NC transfected SKOV3 cells were subcutaneously injected into BALB/c nude mice, a week after injection, Cisplatin (5 mg/kg) or saline was injected into the center of the xenograft tumors twice per week for 3 consecutive weeks. (FIG. 5B) Representative images of tumors in xenografts transfected with LV-shTRDMT1/LV-NC with saline or Cisplatin treatment. (FIG. 5C) Tumor size of SKOV3 subcutaneous xenograft tumors (n=6, Mean±SD). (FIG. 5D) WB for TRDMT1 in tumor tissues collected from mice in each group (Tissues from six tumors in the same group were mixed into one sample). (FIG. 5E) IHC of TRDMT1 and KI-67 expression in ovarian cancer tissues of patients who were platinum-sensitive (PFS>6) and −resistant (PFS<6) Staining was assessed and scored on a scale of 0 (<5% staining) to 4 (>75% staining) in G. Quantification of IHC staining (n=38, PFS>6, n=24; PFS<6, n=14) was shown.
SKOV3 cells (1.0×10^6) were transfected with LV-TRDMT1-RNAi (gcAGAAGA AATTCACAGGAAA, SEQ ID NO: 15) or LV-NC-RNAi and injected […] into female nude mice which were then randomly divided into 4 groups (6 animals per condition). […] PFS was calculated from the time of surgery to the time of progression or recurrence. […]

[1] = test system: cancer cell lines (HST578, MBAMD231, HCC1937, HCC1954); assay: Cell survival (colony) assay with TRDMT1i alone, Example 19; assay type: cell-based; conditions: HCC1954 (HRD, high SYCP2)
Description: FIGS. 14A-14C show TRDMT1i alone reduce cancer cell survival in a dose-dependent manner. (FIG. 14A) Survival rate of HR proficient (HR+) HST578 cancer cells with and without siBRCA1 and/or TRDMT1i YW-1842 at indicated dose. The survival rate of these cells was analyzed (n=3, Mean±SD). (FIG. 14B) Survival rate of MBAMD231 (HR+) and HCC1937 (HRD) cells. The survival rate of these cells was analyzed (n=3, Mean±SD). (FIG. 14C) Cell survival rate in different cancer cell lines via colony-forming assay with the treatment of Imatinib at indicated dose (n=3, mean+/−S.D.). Cell lines are listed in order with the expression level from SYCP2high to SYCP2low.
HCC1500, HCC1954, BT549, MCF7 and MDAMB468 were cultured in Roswell Park Memorial Institute (RPMI) 1640 Medium (Sigma, R8758) with 10% (vol/vol) fetal bovine serum (FBS, XY Cell Culture, FBS-500) at 37° C., 5% CO2. siBRCA1 (L-003461-00, Dharmacon) was transfected with Lipofectamine RNAiMax (Invitrogen; Carlsbad, CA, USA). PARPi Olaparib (AZD2281/Ku-0059436, Sellekchem, S1060) and Pol theta inhibitor Novobiocin (Sigma) were used.
Cells were seeded in each 6-cm dish and cultured as described above. They were treated with drugs with indicated dose in medium after seeding. After 7-10 days, colonies were fixed and stained with 0.3% crystal violet in methanol, and the number of colonies was counted manually.

[2] = test system: MD-MBA-231 xenograft tumors; assay: MDA-MB-231 xenograft with PARPi; assay type: in vivo, BALB/c nude mice; conditions: injection every 2 days after day 7, 23 days
Description: FIGS. 9A-9G show SYCP2 is required for efficient homologous recombination. (FIG. 9A) Cell survival rate of HeLa and MDAMB231 via colony forming assay with the treatment of 2 μM, 4 μm, 6 μM, 8 μM, 16 μM of Olaparib (n=3, mean+/−S.D.). Western blot of SYCP2 overexpression in HeLa and MDA-MB-231 is shown in the left. (FIG. 9B) Cell survival rate of HeLa via colony forming assay with the treatment of 1 μM, 2 μm, 3 μM of Olaparib (n=3, mean+/−S.D.). Western blot of SYCP2 knockdown in Hela is shown in the left. (FIG. 9C) Scheme of Xenograft design using intraperitoneal injection of MBA-MD-231 into successful developed mouse model with virus-associated SYCP2 knockdown and control groups is shown in the left. PARPi was injected every 2 days after day 7. The graph is shown the recorded tumor size of each tested group with PARPi treatment or saline at each treatment day. (FIG. 9D). Numbers of SYCP2 IR induced foci (IRIF) colocalizing with γH2AX in MDAMB231 and HeLa cells. Cells were fixed and counted for foci numbers after 2 Gy IR followed up indicated recovery time (t=0 hr, 12 hr, 24 hr, and 48 hr) (n=30, mean+/−S.D). (FIG. 9E). […] Fold increase of mean intensity at sites of irradiation compared to mean intensity of nucleus expression is quantified (n=5, mean+/−SD). […] Numbers of RAD51 IRIF in siCtrl and siSYCP2 treated MDAMB231 and U2OS cells after 2 Gy IR and 1 hour recovery were counted (n=20, +/−SD). […]

| Structure (SMILES) | xenograft tumor size (SKOV3 xenograft tumors) | sensitivity of HCC1954 to PARPi [1] | tumor growth reduction by PARPi, SYCP2 knockdown versus control tumors ([2]; LV-siSYCP2 tumors) | tumor growth, control tumors ([2]; siControl tumors) |
| --- | --- | --- | --- | --- |
| N.N.[Cl][Pt][Cl] [cisplatin] | grew statistically smaller |  |  |  |
| O=C(c1cc(Cc2n[nH]c(=O)c3ccccc23)ccc1F)N1CCN(C(=O)C2CC2)CC1 [olaparib] |  | relatively resistant | more than control tumors | reduced the growth of control tumors |
